Reference: patent US5906981A, “Halopropargyl inclusion complexes” (Troy Corporation, priority 1996, dated 1999)

Experiments:
[1] = Dissolution in water: stirring in water for 1/2 hour, filtration, recovery of IPBC (Example 2); type: physicochemical; details: 4 g IPBC in 96 g water, stirred 1/2 hour
Method: Four grams of IPBC were added to 96 g of water and stirred for 1/2 hour. The resulting slurry was filtered off and the filter cake was dried and weighed. […] Approximately 27 g of the lyophilized inclusion complex prepared in Example 1 was added to 73 g water and the mixture was stirred for 1/2 hour. […] Use of the inclusion complex in this manner thus affords approximately 4% solution of IPBC in water, which is a solubility enhancement of approximately 250-300 times.

[2] = Thermal decomposition point; type: physicochemical; details: pure IPBC or IPBC in the inclusion complex
Method: The melting point of pure IPBC is 66-67° C. and its decomposition occurs at about 150-155° C., leading to formation of highly colored by-products. The decomposition point of IPBC in the inclusion complex of Examples 1 and 3 was determined to be about 222-225° C.

Question: Which “IPBC recovered in the filter cake” value [1] does the source give for `CCCCNC(=O)OCC#CI` [IPBC, 3-iodo-2-propynyl butylcarbamate] here?
Answer: Approximately 98%

Question: And the decomposition point [2]?
Answer: 150-155 °C
